The target in one assay is T1, ALK5 kinase (Homo sapiens, UniProt P36897).
T1 sequence (P36897 34-503): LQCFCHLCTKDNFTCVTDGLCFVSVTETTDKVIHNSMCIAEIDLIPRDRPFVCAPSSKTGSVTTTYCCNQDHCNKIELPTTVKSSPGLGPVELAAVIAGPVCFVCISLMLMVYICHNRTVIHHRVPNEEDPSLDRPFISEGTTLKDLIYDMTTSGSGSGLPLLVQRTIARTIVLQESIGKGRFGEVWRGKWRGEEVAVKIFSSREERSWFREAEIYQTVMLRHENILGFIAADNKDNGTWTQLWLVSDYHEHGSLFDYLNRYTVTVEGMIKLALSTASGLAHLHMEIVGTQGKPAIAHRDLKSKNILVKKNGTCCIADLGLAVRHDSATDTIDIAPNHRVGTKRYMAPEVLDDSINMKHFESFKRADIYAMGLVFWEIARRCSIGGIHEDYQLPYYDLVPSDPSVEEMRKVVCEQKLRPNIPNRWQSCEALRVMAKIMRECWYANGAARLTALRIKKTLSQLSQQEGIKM
Briefly: LanthaScreen Eu Kinase Binding Assay. The settings on record: Kinase Tracer 178, Eu-anti-GST Antibody, read-out: IC50 Enzyme. The method, then:
[Example 1] LanthaScreen Eu Kinase Binding Assay
4 μL of 4× Test Compound in 4% DMSO and 4 μL of 4× Kinase in Kinase buffer were added to wells (low volume, white 384-well plate (Greiner Cat. #784207)). The plate was shaken for 30 seconds, centrifuged for 10 seconds at 1000 rpm, and incubated at RT for 30 minutes. Then, 4 μL of 4× Eu-anti-GST Antibody and 4 μL of 4× Kinase Tracer 178 were added to the wells. The plate was shaken for 30 seconds, centrifuged for 10 seconds at 1000 rpm, and incubated at RT for 60 minutes. Fluorescence was measured by a plate reader, Biotek Synergy H1 (Vermont, USA) under the following conditions. • Excitation: 340 nm (3 nm bandpass) • Kinase tracer emission: 665 nm (10 nm bandpass) • Eu Ab emission: 615 nm (10 nm bandpass) • Emission ratio=665 nm (tracer)/615 nm (Eu Ab) • The higher the binding affinity of compound to ALK5 kinase is, the less the emission ratio is.

Another assay deals with TGF-β signaling. As to the kind of experiment: Assay for evaluating cellular inhibition of TGF-β signaling, 4T1 (SBE-luc2P) luciferase reporter. The settings on record: Mus musculus, 4T1, 4T1 (SBE-luc2P) transient pool, 0.2% FBS, 2 h pre-treatment, TGF-β1 2 ng/mL 24 h; read-out: IC50 4T1 Cell. The format is cell-based. The gist of the method:
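4T1 cells transiently carrying SBE-luc2P (6×10^3/well, 0.2% FBS, ~60% confluence) or HEK293 SBE-reporter stable cells (2.5×10^4/well, 0.5% FBS, ~80% confluence) pre-treated with compound for 2 h. TGF-β1 (2 ng/mL) then added for 24 h at 37 °C; luciferase luminescence read from lysates.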
On the technique in general: Reporter assays use an easily measured gene product as a stand-in for the process of interest.

Consider 28 molecules from patent US20250206730A1 (AUTOTELIC BIO INC., priority 2022, published 2025).

SMILES strings stand for the structures. pIC50: −log10 of the molar value.

As usually defined, the pIC50 is the IC50 on a negative log10 scale, so that one unit is a factor of ten. Regarding `NS(=O)(=O)c1ccc(Nc2cc(Oc3sc(C4CC4)nc3-c3ccccc3)ccn2)cc1` [A-118, 4-((4-((2-Cyclopropyl-4-phenylthiazol-5-yl)oxy)pyridin-2-yl)amino)benzenesulfonamide], the pIC50 was over 7.00 at ALK5 kinase and under 7.00 with TGF-β signaling.
With `NC(=O)c1ccc(Nc2cc(Oc3sc(C4CC4)nc3-c3ccccc3)ccn2)cc1` [A-119, 4-((4-((2-Cyclopropyl-4-phenylthiazol-5-yl)oxy)pyridin-2-yl)amino)benzamide], the pIC50 at ALK5 kinase and in the assay on TGF-β signaling was over 7.00 each time.
`CC(C)(O)c1cc(Nc2cc(Oc3sc(C4CC4)nc3-c3ccccc3)ccn2)ccn1` [A-120, 2-(4-((4-((2-Cyclopropyl-4-phenylthiazol-5-yl)oxy)pyridin-2-yl)amino)pyridin-2-yl)propan-2-ol]: the pIC50 at ALK5 kinase is over 7.00; in the assay on TGF-β signaling it was under 7.00.
For `CC(C)(O)c1ccc(Nc2cc(Oc3sc(C4CC4)nc3-c3ccccc3)ccn2)cn1` [A-121, 2-(5-((4-((2-Cyclopropyl-4-phenylthiazol-5-yl)oxy)pyridin-2-yl)amino)pyridin-2-yl)propan-2-ol] the same measures were over 7.00 and under 7.00.
In the case of `CCS(=O)(=O)Nc1cccc(Nc2cc(Oc3sc(C4CC4)nc3-c3ccccc3)ccn2)c1` [A-122, N-(3-((4-((2-Cyclopropyl-4-phenylthiazol-5-yl)oxy)pyridin-2-yl)amino)phenyl)ethanesulfonamide], the pIC50 on ALK5 kinase and in the assay on TGF-β signaling was over 7.00 in each case.
`NC(=O)c1cccc(Nc2cc(Oc3sc(C4CC4)nc3-c3ccccc3)ccn2)n1` [A-124, 6-((4-((2-Cyclopropyl-4-phenylthiazol-5-yl)oxy)pyridin-2-yl)amino)picolinamide]: the pIC50 at ALK5 kinase and in the assay with TGF-β signaling was over 7.00 each time.
On to `CNC(=O)c1cccc(Nc2cc(Oc3sc(C4CC4)nc3-c3ccccc3)ccn2)n1` [A-125, 6-((4-((2-Cyclopropyl-4-phenylthiazol-5-yl)oxy)pyridin-2-yl)amino)-N-methylpicolinamide], for which the pIC50 on ALK5 kinase and in the assay with TGF-β signaling was over 7.00 each time.
As to `CNC(=O)c1ccc(Nc2cc(Oc3sc(C4CC4)nc3-c3ccccc3)ccn2)cc1` [A-126, 4-((4-((2-Cyclopropyl-4-phenylthiazol-5-yl)oxy)pyridin-2-yl)amino)-N-methylbenzamide], the pIC50 on ALK5 kinase and in the assay on TGF-β signaling was over 7.00 each time.
Regarding `CS(=O)(=O)Nc1ccc(Nc2cc(Oc3sc(C4CC4)nc3-c3ccccc3)ccn2)nc1` [A-127, N-(6-((4-((2-Cyclopropyl-4-phenylthiazol-5-yl)oxy)pyridin-2-yl)amino)pyridin-3-yl)methanesulfonamide], the pIC50 at ALK5 kinase and in the assay on TGF-β signaling was over 7.00 each time.
Consider `CS(=O)(=O)Nc1ccc(Nc2cc(Oc3sc(C4CC4)nc3-c3ccccc3)ccn2)cc1` [A-128, N-(4-((4-((2-Cyclopropyl-4-phenylthiazol-5-yl)oxy)pyridin-2-yl)amino)phenyl)methanesulfonamide], for which the pIC50 on ALK5 kinase and in the assay on TGF-β signaling was over 7.00 throughout.
Take `NC(=O)c1ccc(Nc2cc(Oc3sc(C4CC4)nc3-c3ccccc3)ccn2)nc1` [A-129, 6-((4-((2-Cyclopropyl-4-phenylthiazol-5-yl)oxy)pyridin-2-yl)amino)nicotinamide]: the pIC50 on ALK5 kinase and in the assay on TGF-β signaling was over 7.00 in each case.
As for `O=C(O)c1ccc(Nc2cc(Oc3sc(C4CC4)nc3-c3ccccc3)ccn2)nc1` [A-132, 6-((4-((2-Cyclopropyl-4-phenylthiazol-5-yl)oxy)pyridin-2-yl)amino)nicotinic acid], the pIC50 on ALK5 kinase and in the assay with TGF-β signaling was over 7.00 each time.
As for `CNC(=O)c1ccc(Nc2cc(Oc3sc(C4CC4)nc3-c3ccccc3)ccn2)nc1` [A-133, 6-((4-((2-Cyclopropyl-4-phenylthiazol-5-yl)oxy)pyridin-2-yl)amino)-N-methylnicotinamide], the pIC50 at ALK5 kinase and with TGF-β signaling was over 7.00 throughout.
Take `O=C(O)c1cccc(Nc2cc(Oc3sc(C4CC4)nc3-c3ccccc3)ccn2)n1` [A-134, 6-((4-((2-Cyclopropyl-4-phenylthiazol-5-yl)oxy)pyridin-2-yl)amino)picolinic acid]: the pIC50 on ALK5 kinase and with TGF-β signaling was over 7.00 throughout.
For the molecule `O=C(O)c1cccc(Nc2cc(Oc3sc(C4CC4)nc3-c3ccccc3)ccn2)c1` [A-135, 3-((4-((2-Cyclopropyl-4-phenylthiazol-5-yl)oxy)pyridin-2-yl)amino)benzoic acid], the pIC50 at ALK5 kinase and with TGF-β signaling was over 7.00 in each case.
For `O=C(O)c1ccc(Nc2cc(Oc3sc(C4CC4)nc3-c3ccccc3)ccn2)cc1` [A-136, 4-((4-((2-Cyclopropyl-4-phenylthiazol-5-yl)oxy)pyridin-2-yl)amino)benzoic acid], the pIC50 on ALK5 kinase and in the assay on TGF-β signaling was over 7.00 throughout.
Consider `O=C(NO)c1ccc(Nc2cc(Oc3sc(C4CC4)nc3-c3ccccc3)ccn2)nc1` [A-138, 6-((4-((2-Cyclopropyl-4-phenylthiazol-5-yl)oxy)pyridin-2-yl)amino)-N-hydroxynicotinamide], for which the pIC50 at ALK5 kinase and in the assay on TGF-β signaling was over 7.00 in each case.
As to `O=C(NO)c1ccc(Nc2cc(Oc3sc(C4CC4)nc3-c3ccccc3)ccn2)cc1` [A-139, 4-((4-((2-Cyclopropyl-4-phenylthiazol-5-yl)oxy)pyridin-2-yl)amino)-N-hydroxybenzamide], the pIC50 on ALK5 kinase is over 7.00; with TGF-β signaling it was under 7.00.
For the molecule `CS(=O)(=O)NC(=O)c1ccc(Nc2cc(Oc3sc(C4CC4)nc3-c3ccccc3)ccn2)nc1` [A-140, 6-((4-((2-Cyclopropyl-4-phenylthiazol-5-yl)oxy)pyridin-2-yl)amino)-N-(methylsulfonyl)nicotinamide], the pIC50 at ALK5 kinase was over 7.00; in the assay with TGF-β signaling, under 7.00.
As to `COc1nc(-c2ccccc2)c(Oc2ccnc(Nc3cccc(C(C)(C)O)c3)c2)s1` [A-141, 2-(3-((4-((2-Methoxy-4-phenylthiazol-5-yl)oxy)pyridin-2-yl)amino)phenyl)propan-2-ol], the pIC50 is over 7.00 on ALK5 kinase and under 7.00 in the assay with TGF-β signaling.
For `COc1nc(-c2ccccc2)c(Oc2ccnc(Nc3cccc(S(N)(=O)=O)c3)c2)s1` [A-142, 3-((4-((2-Methoxy-4-phenylthiazol-5-yl)oxy)pyridin-2-yl)amino)benzenesulfonamide], the pIC50 is over 7.00 on ALK5 kinase and under 7.00 in the assay with TGF-β signaling.
As to `COc1nc(-c2ccccc2)c(Oc2ccnc(Nc3cccc(C(N)=O)c3)c2)s1` [A-143, 3-((4-((2-Methoxy-4-phenylthiazol-5-yl)oxy)pyridin-2-yl)amino)benzamide], the figures for the pIC50 at ALK5 kinase and in the assay on TGF-β signaling were over 7.00 and under 7.00, respectively.
Regarding `COc1nc(-c2ccccc2)c(Oc2ccnc(Nc3cccc(C(=O)O)c3)c2)s1` [A-144, 3-((4-((2-Methoxy-4-phenylthiazol-5-yl)oxy)pyridin-2-yl)amino)benzoic acid], the pIC50 on ALK5 kinase was over 7.00; with TGF-β signaling it was under 7.00.
In the case of `NS(=O)(=O)c1cccc(Nc2cc(Oc3sc(C(F)(F)F)nc3-c3ccccc3)ccn2)c1` [A-145, 3-((4-((4-Phenyl-2-(trifluoromethyl)thiazol-5-yl)oxy)pyridin-2-yl)amino)benzenesulfonamide], the pIC50 at ALK5 kinase is over 7.00; in the assay with TGF-β signaling, under 7.00.
Regarding `NC(=O)c1ccc(Nc2cc(Oc3sc(C(F)(F)F)nc3-c3ccccc3)ccn2)nc1` [A-146, 6-((4-((4-Phenyl-2-(trifluoromethyl)thiazol-5-yl)oxy)pyridin-2-yl)amino)nicotinamide], the pIC50 on ALK5 kinase and with TGF-β signaling was over 7.00 throughout.
On to `NC(=O)c1ccc(Nc2cc(Oc3sc(C(F)(F)F)nc3-c3ccccc3)ccn2)cc1` [A-147, 4-((4-((4-Phenyl-2-(trifluoromethyl)thiazol-5-yl)oxy)pyridin-2-yl)amino)benzamide], for which the pIC50 at ALK5 kinase and in the assay with TGF-β signaling was over 7.00 throughout.
`CNC(=O)c1ccc(Nc2cc(Oc3sc(C(F)(F)F)nc3-c3ccccc3)ccn2)cc1` [A-148, N-Methyl-4-((4-((4-phenyl-2-(trifluoromethyl)thiazol-5-yl)oxy)pyridin-2-yl)amino)benzamide]: the pIC50 on ALK5 kinase and in the assay with TGF-β signaling was over 7.00 in each case.
For the molecule `O=C(O)c1ccc(Nc2cc(Oc3sc(C(F)(F)F)nc3-c3ccccc3)ccn2)nc1` [A-149, 6-((4-((4-Phenyl-2-(trifluoromethyl)thiazol-5-yl)oxy)pyridin-2-yl)amino)nicotinic acid], the pIC50 at ALK5 kinase and in the assay on TGF-β signaling was over 7.00 throughout.
